We go through 2 compounds from PMC10879502, “Linking ATP and allosteric sites to achieve superadditive binding with bivalent EGFR kinase inhibitors” (Communications Chemistry, 2024).

Several values for one entry are separate records, joined by “and”; a condition that tells them apart may be missing. Identical values can stand only once. Like-named read-outs stand apart in the source and are kept apart here.

The term IC50 denotes the point on the concentration scale where inhibition reaches its midpoint.

For assay [1], the target named is T1, EGFR L858R (LR) kinase domain (Homo sapiens, UniProt P00533, L858R).
T1 construct: The EGFR kinase domain (residues 696–1022) was cloned into pTriEx; 6xHis (N, cleaved yes); GST (N, cleaved yes); made in house; host or cells: SF9 insect cells, baculovirus
Kind of assay: HTRF KinEASE-TK kinase activity assay. Type of assay: biochemical. On the technique in general: In TR-FRET formats the signal depends on donor and acceptor labels being close together.

For assay [2], the target named is T2, LATS2 (Homo sapiens, UniProt Q9NRM7).
T2 construct: purchased Eurofins DiscoverX Corporation
In words: KINOMEscan. Type of assay: binding. The conditions noted are these: 1 μM.

The target in assay [3] is EGFR(L747-E749del+A750P) (Homo sapiens, UniProt P00533, A750P/DEL747-749). In words: KINOMEscan. Type of assay: binding. The settings on record: 1 μM.
The target in assay [4] is FGFR2 (Homo sapiens, UniProt P21802). In words: KINOMEscan. Type of assay: binding. The settings on record: 1 μM.
The target of assay [5] is ACVR1B (Homo sapiens, UniProt P36896). In words: KINOMEscan. Type of assay: binding. The conditions noted are these: 1 μM.
The target in assay [6] is STK36 (Homo sapiens, UniProt Q9NRP7). In words: KINOMEscan. The conditions noted are these: 1 μM. Type of assay: binding.
Assay [7] concerns the target T3, GCN2(Kin.Dom.2+S808G) (Homo sapiens, UniProt Q9P2K8, S808G).
T3 construct: GCN2(Kin.Dom.2+S808G); purchased Eurofins DiscoverX Corporation
Kind of assay: KINOMEscan. Type of assay: binding. The settings on record: 1 μM.

The target of assay [8] is T4, LTK (Homo sapiens, UniProt P29376).
T4 construct: purchased Eurofins DiscoverX Corporation
In words: KINOMEscan. Type of assay: binding. The settings on record: 1 μM.

In assay [9] the target is CDKL5 (Homo sapiens, UniProt O76039). Kind of assay: KINOMEscan. The conditions noted are these: 1 μM. Type of assay: binding.
The target in assay [10] is YES (Homo sapiens, UniProt P07947). In words: KINOMEscan. Type of assay: binding. The conditions noted are these: 1 μM.
Assay [11] has as its target T5, MAP3K1 (Homo sapiens, UniProt Q13233).
T5 construct: purchased Eurofins DiscoverX Corporation
Kind of assay: KINOMEscan. The conditions noted are these: 1 μM. Type of assay: binding.

The target of assay [12] is PAK1 (Homo sapiens, UniProt Q13153). Kind of assay: KINOMEscan. Type of assay: binding. The conditions noted are these: 1 μM.
Assay [13] deals with ERK1 (Homo sapiens, UniProt P27361). Kind of assay: KINOMEscan. Type of assay: binding. The conditions noted are these: 1 μM.
The target of assay [14] is AKT2 (Homo sapiens, UniProt P31751). Kind of assay: KINOMEscan. Type of assay: binding. The conditions noted are these: 1 μM.
The target of assay [15] is AURKB (Homo sapiens, UniProt Q96GD4). In words: KINOMEscan. Type of assay: binding. The conditions noted are these: 1 μM.
For assay [16], the target named is T6, HIPK4 (Homo sapiens, UniProt Q8NE63).
T6 construct: purchased Eurofins DiscoverX Corporation
In words: KINOMEscan. Type of assay: binding. The conditions noted are these: 1 μM.

Assay [17] addresses T7, MARK4 (Homo sapiens, UniProt Q96L34).
T7 construct: purchased Eurofins DiscoverX Corporation
In words: KINOMEscan. Type of assay: binding. The conditions noted are these: 1 μM.

For assay [18], the target named is PRKCD (Homo sapiens, UniProt Q05655). In words: KINOMEscan. Type of assay: binding. The conditions noted are these: 1 μM.
In assay [19] the target is RSK1(Kin.Dom.1-N-terminal) (Homo sapiens, UniProt Q15418). Kind of assay: KINOMEscan. Type of assay: binding. The settings on record: 1 μM.
For assay [20], the target named is T8, NEK11 (Homo sapiens, UniProt Q8NG66).
T8 construct: purchased Eurofins DiscoverX Corporation
In words: KINOMEscan. Type of assay: binding. The conditions noted are these: 1 μM.

Assay [21] has as its target T9, GRK4 (Homo sapiens, UniProt P32298).
T9 construct: purchased Eurofins DiscoverX Corporation
In words: KINOMEscan. Type of assay: binding. The conditions noted are these: 1 μM.

The target in assay [22] is ROS1 (Homo sapiens, UniProt P08922). Kind of assay: KINOMEscan. Type of assay: binding. The conditions noted are these: 1 μM.
For assay [23], the target named is NEK7 (Homo sapiens, UniProt Q8TDX7). In words: KINOMEscan. Type of assay: binding. The conditions noted are these: 1 μM.
Assay [24] deals with T10, CAMK2G (Homo sapiens, UniProt Q13555).
T10 construct: purchased Eurofins DiscoverX Corporation (KINOMEscan)
Kind of assay: KINOMEscan. Type of assay: binding. The conditions noted are these: 1 μM.

The target of assay [25] is ERK5 (Homo sapiens, UniProt Q13164). In words: KINOMEscan. Type of assay: binding. The settings on record: 1 μM.
The target of assay [26] is T11, KIT(V559D) (Homo sapiens, UniProt P10721, V559D).
T11 construct: purchased Eurofins DiscoverX Corporation
In words: KINOMEscan. Type of assay: binding. The conditions noted are these: 1 μM.

In assay [27] the target is T12, TRKA (Homo sapiens, UniProt P04629).
T12 construct: purchased Eurofins DiscoverX Corporation
In words: KINOMEscan. Type of assay: binding. The settings on record: 1 μM.

In assay [28] the target is SgK110 (Homo sapiens, UniProt P0C264). Kind of assay: KINOMEscan. Type of assay: binding. The conditions noted are these: 1 μM.
The target in assay [29] is T13, MST1 (Homo sapiens, UniProt Q13043).
T13 construct: purchased Eurofins DiscoverX Corporation
Kind of assay: KINOMEscan. Type of assay: binding. The conditions noted are these: 1 μM.

Assay [30] concerns the target T14, ABL1(F317I)-phosphorylated (Homo sapiens, UniProt P00519, F317I).
T14 construct: purchased Eurofins DiscoverX Corporation
In words: KINOMEscan. The conditions noted are these: 1 μM. Type of assay: binding.

Assay [31] deals with T15, DLK (Homo sapiens, UniProt Q12852).
T15 construct: purchased Eurofins DiscoverX Corporation
Kind of assay: KINOMEscan. Type of assay: binding. The conditions noted are these: 1 μM.

The target of assay [32] is EPHA3 (Homo sapiens, UniProt P29320). In words: KINOMEscan. Type of assay: binding. The conditions noted are these: 1 μM.
The target of assay [33] is PIK4CB (Homo sapiens, UniProt Q9UBF8). In words: KINOMEscan. Type of assay: binding. The conditions noted are these: 1 μM.
For assay [34], the target named is T16, CAMK4 (Homo sapiens, UniProt Q16566).
T16 construct: purchased Eurofins DiscoverX Corporation (KINOMEscan)
In words: KINOMEscan. Type of assay: binding. The conditions noted are these: 1 μM.

Assay [35] addresses PDGFRA (Homo sapiens, UniProt P16234). Kind of assay: KINOMEscan. Type of assay: binding. The conditions noted are these: 1 μM.
In assay [36] the target is T17, FLT4 (Homo sapiens, UniProt P35916).
T17 construct: purchased Eurofins DiscoverX Corporation
Kind of assay: KINOMEscan. Type of assay: binding. The conditions noted are these: 1 μM.

Assay [37] deals with ERK3 (Homo sapiens, UniProt Q16659). Kind of assay: KINOMEscan. The settings on record: 1 μM. Type of assay: binding.
Assay [38] addresses T18, JAK1(JH2domain-pseudokinase) (Homo sapiens, UniProt P23458).
T18 construct: JAK1(JH2domain-pseudokinase); purchased Eurofins DiscoverX (KINOMEscan)
Kind of assay: KINOMEscan. Type of assay: binding. The conditions noted are these: 1 μM.

T15 sequence (Q12852 whole entry): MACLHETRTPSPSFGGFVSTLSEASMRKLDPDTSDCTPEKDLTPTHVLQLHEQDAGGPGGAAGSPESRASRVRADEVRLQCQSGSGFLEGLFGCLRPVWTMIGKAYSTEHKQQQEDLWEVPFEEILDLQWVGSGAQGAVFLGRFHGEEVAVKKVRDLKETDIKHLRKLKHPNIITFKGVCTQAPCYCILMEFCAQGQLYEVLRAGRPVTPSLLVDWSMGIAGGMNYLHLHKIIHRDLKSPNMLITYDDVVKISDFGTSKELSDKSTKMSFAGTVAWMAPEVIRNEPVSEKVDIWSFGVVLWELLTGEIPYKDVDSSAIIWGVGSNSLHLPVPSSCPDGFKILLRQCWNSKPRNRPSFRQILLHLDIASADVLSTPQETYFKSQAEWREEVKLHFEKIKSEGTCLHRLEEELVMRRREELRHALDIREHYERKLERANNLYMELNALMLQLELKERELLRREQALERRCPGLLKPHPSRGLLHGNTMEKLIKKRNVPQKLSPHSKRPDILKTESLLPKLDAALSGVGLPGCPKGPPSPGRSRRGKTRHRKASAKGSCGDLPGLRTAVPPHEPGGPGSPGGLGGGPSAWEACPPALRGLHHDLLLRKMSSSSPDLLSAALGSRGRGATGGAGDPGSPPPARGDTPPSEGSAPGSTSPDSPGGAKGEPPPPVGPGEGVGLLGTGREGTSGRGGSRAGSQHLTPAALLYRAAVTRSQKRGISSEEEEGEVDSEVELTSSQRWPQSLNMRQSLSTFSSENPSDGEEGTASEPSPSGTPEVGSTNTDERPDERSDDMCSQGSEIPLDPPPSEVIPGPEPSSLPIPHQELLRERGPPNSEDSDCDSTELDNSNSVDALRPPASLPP
EPHA3, sequence (P29320 21-983): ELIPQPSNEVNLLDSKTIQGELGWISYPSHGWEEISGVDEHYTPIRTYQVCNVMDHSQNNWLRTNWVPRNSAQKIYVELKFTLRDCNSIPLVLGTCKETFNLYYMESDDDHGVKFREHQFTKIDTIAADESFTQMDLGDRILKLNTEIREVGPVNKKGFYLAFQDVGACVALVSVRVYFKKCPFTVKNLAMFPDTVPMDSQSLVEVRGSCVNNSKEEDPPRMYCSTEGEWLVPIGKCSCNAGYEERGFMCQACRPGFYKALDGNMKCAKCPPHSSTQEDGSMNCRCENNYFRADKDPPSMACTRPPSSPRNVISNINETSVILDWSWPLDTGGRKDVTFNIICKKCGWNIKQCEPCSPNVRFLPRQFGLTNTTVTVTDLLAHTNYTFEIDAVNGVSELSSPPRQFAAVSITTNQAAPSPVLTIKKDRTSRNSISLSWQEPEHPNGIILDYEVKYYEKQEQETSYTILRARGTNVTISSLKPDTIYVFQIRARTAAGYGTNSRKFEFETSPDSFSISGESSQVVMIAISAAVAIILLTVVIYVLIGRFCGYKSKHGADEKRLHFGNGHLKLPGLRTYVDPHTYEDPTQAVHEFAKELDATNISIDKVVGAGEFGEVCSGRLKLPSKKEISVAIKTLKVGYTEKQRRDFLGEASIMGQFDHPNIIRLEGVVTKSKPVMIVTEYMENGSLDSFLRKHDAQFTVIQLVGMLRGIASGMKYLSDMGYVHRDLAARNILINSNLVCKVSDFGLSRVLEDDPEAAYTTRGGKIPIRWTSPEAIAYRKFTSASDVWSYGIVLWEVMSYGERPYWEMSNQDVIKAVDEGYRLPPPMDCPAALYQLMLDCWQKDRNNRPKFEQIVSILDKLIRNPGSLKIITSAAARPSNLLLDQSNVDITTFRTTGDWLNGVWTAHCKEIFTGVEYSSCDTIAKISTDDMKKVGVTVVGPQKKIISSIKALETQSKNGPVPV
ERK5, sequence (Q13164 whole entry): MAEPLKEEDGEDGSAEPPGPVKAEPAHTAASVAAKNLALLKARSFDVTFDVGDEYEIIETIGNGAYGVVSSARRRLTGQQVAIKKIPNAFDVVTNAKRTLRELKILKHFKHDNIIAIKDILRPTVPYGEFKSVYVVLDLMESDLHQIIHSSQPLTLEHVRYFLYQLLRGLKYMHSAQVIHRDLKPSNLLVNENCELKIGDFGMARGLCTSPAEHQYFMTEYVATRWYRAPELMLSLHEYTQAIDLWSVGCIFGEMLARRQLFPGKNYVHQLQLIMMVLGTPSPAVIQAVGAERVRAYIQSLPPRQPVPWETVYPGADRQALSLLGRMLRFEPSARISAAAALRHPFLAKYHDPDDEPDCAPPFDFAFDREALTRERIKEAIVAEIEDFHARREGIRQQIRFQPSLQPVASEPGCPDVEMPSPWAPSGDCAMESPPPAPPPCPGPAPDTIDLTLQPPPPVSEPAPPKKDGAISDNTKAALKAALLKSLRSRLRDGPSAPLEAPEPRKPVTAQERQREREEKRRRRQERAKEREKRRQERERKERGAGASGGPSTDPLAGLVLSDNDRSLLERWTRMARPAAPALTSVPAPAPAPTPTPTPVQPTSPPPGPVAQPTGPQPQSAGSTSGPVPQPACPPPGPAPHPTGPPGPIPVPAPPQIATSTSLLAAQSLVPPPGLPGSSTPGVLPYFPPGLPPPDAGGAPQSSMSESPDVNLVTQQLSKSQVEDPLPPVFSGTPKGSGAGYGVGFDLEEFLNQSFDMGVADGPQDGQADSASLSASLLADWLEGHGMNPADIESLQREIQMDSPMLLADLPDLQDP
PIK4CB, sequence (Q9UBF8 whole entry): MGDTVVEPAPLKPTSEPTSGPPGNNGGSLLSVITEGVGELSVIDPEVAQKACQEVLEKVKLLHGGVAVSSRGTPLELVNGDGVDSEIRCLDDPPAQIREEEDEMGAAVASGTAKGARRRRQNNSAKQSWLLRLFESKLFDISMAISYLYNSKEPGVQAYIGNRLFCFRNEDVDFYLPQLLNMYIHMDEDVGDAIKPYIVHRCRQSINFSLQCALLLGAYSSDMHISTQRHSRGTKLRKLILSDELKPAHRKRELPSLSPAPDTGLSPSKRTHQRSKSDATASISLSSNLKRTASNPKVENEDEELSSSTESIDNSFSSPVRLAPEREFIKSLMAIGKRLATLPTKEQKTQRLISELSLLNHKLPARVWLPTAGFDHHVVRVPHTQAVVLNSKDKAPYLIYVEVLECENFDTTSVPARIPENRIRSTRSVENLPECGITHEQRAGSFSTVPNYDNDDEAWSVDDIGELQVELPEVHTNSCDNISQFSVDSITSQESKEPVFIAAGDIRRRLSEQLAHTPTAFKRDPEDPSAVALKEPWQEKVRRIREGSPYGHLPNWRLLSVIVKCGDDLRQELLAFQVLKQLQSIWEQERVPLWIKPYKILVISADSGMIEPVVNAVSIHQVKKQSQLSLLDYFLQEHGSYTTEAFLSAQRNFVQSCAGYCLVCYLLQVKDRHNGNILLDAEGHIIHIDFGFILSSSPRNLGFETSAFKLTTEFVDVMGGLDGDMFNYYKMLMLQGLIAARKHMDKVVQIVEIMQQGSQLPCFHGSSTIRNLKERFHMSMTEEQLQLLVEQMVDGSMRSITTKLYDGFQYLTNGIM
ERK3, sequence (Q16659 whole entry): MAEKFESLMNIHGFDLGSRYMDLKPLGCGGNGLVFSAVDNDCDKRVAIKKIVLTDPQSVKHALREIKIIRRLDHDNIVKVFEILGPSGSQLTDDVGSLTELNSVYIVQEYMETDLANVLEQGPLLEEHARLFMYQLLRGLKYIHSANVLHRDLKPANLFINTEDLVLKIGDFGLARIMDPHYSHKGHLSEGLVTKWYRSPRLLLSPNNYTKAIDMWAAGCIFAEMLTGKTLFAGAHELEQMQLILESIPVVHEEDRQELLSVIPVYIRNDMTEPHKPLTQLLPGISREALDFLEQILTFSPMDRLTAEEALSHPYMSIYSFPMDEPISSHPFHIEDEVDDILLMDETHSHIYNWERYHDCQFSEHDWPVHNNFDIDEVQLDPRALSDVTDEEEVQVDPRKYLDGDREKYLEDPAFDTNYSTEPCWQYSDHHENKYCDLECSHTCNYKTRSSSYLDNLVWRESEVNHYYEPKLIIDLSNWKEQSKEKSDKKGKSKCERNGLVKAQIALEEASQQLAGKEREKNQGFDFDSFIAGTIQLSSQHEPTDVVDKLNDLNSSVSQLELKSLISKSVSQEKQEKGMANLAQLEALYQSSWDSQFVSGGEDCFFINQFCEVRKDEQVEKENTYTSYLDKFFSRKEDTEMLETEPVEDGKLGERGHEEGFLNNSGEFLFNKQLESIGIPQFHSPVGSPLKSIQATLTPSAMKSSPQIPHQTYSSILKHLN
T8 sequence (Q8NG66 whole entry): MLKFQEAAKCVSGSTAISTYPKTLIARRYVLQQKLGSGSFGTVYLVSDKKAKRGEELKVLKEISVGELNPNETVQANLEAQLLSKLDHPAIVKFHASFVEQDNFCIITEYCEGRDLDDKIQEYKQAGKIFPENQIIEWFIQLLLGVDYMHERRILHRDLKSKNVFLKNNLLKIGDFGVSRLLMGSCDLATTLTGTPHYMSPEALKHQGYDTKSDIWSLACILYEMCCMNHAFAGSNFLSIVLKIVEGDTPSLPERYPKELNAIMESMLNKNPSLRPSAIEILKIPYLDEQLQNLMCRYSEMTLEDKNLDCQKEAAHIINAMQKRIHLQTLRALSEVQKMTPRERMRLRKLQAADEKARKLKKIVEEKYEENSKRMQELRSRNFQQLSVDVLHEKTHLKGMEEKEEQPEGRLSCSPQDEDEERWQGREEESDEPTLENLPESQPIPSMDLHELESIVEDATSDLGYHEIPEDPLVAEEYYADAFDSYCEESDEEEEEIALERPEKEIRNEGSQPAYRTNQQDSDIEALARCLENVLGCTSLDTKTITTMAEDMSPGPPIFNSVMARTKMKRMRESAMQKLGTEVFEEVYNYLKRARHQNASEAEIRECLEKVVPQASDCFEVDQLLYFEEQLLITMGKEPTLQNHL

With `CSc1nc(-c2cccc(NC(=O)c3cccc4c3NC(=O)c3ccccc3N4)c2)c(-c2ccnc(NC(C)=O)c2)[nH]1` [Compound 2], the activity in assay [1] (LR, [Inhibitor] 1.3e-5 nM, read-out: percent inhibition) is 93.5% and 92.2% and 100%; in assay [1] (LR, [Inhibitor] 3.18e-5 nM, read-out: percent inhibition) it was 90.3% (2×) and 95.9%; in [1] (LR, [Inhibitor] 7.78e-5 nM, read-out: percent inhibition), 71% and 67.2% and 70.8%. Besides, in [1] (LR, [Inhibitor] 0.000190441 nM, read-out: percent inhibition), the activity at 190.4 fM was found to be 39.1%. In addition, the activity at 466 fM in assay [1] (LR, [Inhibitor] 0.000465979 nM, read-out: percent inhibition) turned out to be 22.7%. Besides, the activity at 1.14 pM in assay [1] (LR, [Inhibitor] 0.00114018 nM, read-out: percent inhibition) is 13.5%. For the same compound, the activity at 2.79 pM in [1] (LR, [Inhibitor] 0.00278983 nM, read-out: percent inhibition) stood at 8.55%. The activity at 6.826 pM in assay [1] (LR, [Inhibitor] 0.00682626 nM, read-out: percent inhibition) was 4.28%. In addition, in assay [1] (LR, [Inhibitor] 0.0167028 nM, read-out: percent inhibition), the activity at 16.7 pM was found to be 1.88%. Further, the IC50 in [1] (enzyme 0.1 nM, ATP 100 µM, read-out: Biochemical EGFR IC50, LR) was found to be 1.5 ± 0.1 nM.
For `C=CC(=O)Nc1ccc(OC)c(Nc2cc(-c3[nH]c(CC)nc3-c3cccc(NC(=O)c4cccc5c4NC(=O)c4ccccc4N5)c3)ccn2)c1` [Compound 4], the POC is reported as 62% of control in assay [2]; 8% of control in [3]; 100% of control in assay [4]; 85% of control in assay [5]; 30% of control in assay [6]; 100% of control in assay [7]. Also, the POC was 48% of control in assay [8]; 98% of control in [9]; 20% of control in [10]; 100% of control in [11]; 100% of control in assay [12]; 99% of control in assay [13]. Moreover, the POC is reported as 91% of control in assay [14]; 100% of control in assay [15]; 92% of control in assay [16]; 92% of control in assay [17]; 55% of control in assay [18]; 4.7% of control in assay [19]. The POC is 100% of control in [20]; 100% of control in [21]; 80% of control in [22]; 86% of control in assay [23]; 100% of control in assay [24]; 100% of control in assay [25]. The POC in assay [26] is given as 100% of control; in assay [27] it was 77% of control; in [28], 100% of control; in assay [29], 6% of control; in assay [30], 84% of control; in assay [31], 100% of control. Moreover, the POC in assay [32] is recorded as 81% of control; in [33], 93% of control; in assay [34], 99% of control; in [35], 69% of control; in [36], 100% of control; in [37], 100% of control. Also, in assay [38], the POC is recorded as 83% of control.
